Where two headings read alike, the source gives them in different places.
Columns and labels:
[1] = molecular target: T1, Human cardiac chymase (Homo sapiens, UniProt P23946); assay: Inhibitory activity against chymase (Ang I to Ang II conversion, HPLC); format: biochemical
T1 construct: Human cardiac chymase was purified according to the process of Urata et al; from tissue; host or cells: human heart (cardiac)
T1 sequence (P23946 22-247): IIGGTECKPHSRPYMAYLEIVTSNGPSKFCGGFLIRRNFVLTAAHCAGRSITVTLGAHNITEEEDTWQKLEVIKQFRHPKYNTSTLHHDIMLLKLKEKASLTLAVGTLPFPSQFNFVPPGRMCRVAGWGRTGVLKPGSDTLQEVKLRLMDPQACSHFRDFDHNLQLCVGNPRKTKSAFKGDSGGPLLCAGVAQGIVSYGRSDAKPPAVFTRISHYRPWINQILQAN
Protocol: Human cardiac chymase was purified according to the process of Urata et al. (see the literature described above), and the inhibitory activities of the hydantoin compounds according to the present invention against the chymase were determined in the following manner. Namely, 10 μl of the purified chymase and 5 μl of a solution of a sample to be tested in dimethyl sulfoxide (hereinafter abbreviated as "DMSO") were added to 10 μl of a 20 mM Tris-hydrochloric acid buffer (pH 7.5) containing 2M KCl, and the resultant mixture was preincubated at 37° C. for 10 minutes and then added with 25 μl of a 1 mM solution of Ang I, followed by incubation at 37° C. for 30 minutes. Then, 50 μl of 30% acetic acid were added to stop the enzyme reaction. On the other hand, 5 μl of DMSO were added in place of the solution of the test sample to similarly conduct a reaction as a blank test.
(§1) After completion of the reaction, each liquid reaction mixture was subjected to high performance liquid chromatography on Develosil ODS-5 (product of Nomura Kagaku, 4.6 mm across×150 mm long) to develop it at a linear concentration gradient that the concentration of acetonitrile in 0.05% trifluoroacetic acid (hereinafter abbreviated as "TFA") is increased from 0% to 60% in 10 minutes at a flow rate of 2.0 ml/min. Monitoring was performed by the absorbance measurements at 210 nm. Peaks were identified by comparison with standard solutions of Ang I and Ang II. The areas of the peaks were determined by an integrator to quantitate Ang I and Ang II, thereby calculating chymase activity. The inhibitory activity against chymase was determined by calculating an inhibition rate, median inhibitory concentration (IC50) on the basis of the value in the blank test.

[2] = molecular target: T2, cathepsin G (Homo sapiens, UniProt P08311); assay: Inhibitory activity against cathepsin G (Ang I to Ang II conversion, HPLC); format: biochemical
T2 construct: cathepsin G (product of Calbiochem Co.) derived from human neutrophil; purchased Calbiochem Co; host or cells: human neutrophil
T2 sequence (P08311 21-244 limits assumed): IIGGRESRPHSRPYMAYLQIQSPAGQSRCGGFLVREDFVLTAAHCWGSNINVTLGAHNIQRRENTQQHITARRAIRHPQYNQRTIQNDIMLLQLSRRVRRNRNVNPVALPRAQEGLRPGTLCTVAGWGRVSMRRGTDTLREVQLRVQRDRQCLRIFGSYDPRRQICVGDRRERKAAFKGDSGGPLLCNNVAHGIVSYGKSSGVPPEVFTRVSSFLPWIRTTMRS
Protocol: as §1
To a 20 mM Tris-hydrochloric acid buffer (pH 7.5) containing 2M KCl, were added 20 μl of a solution with cathepsin G (product of Calbiochem Co.) derived from human neutrophil dissolved at a concentration of 2 μg/ml in the same buffer, and 5 μl of a DMSO solution of a sample to be tested, and the resultant mixture was preincubated at 37° C. for 10 minutes and then added with 25 μl of a 1 mM solution of Ang I, followed by incubation at 37° C. for 30 minutes. Then, 50 μl of 30% acetic acid were added to stop the enzyme reaction. On the other hand, 5 μl of DMSO were added in place of the solution of the test sample to similarly conduct a reaction as a blank test. […] The inhibitory activity against cathepsin G was determined by calculating an inhibition rate, median inhibitory concentration (IC50) on the basis of the value in the blank test.

[3] = molecular target: T3, bovine pancreas α-chymotrypsin (Bos taurus, UniProt P00766); assay: Inhibitory activity against chymotrypsin (Ang I conversion, HPLC); format: biochemical
T3 construct: bovine pancreas α-chymotrypsin (product of Sigma Chemical Co., TypeII); purchased Sigma Chemical Co. TypeII; host or cells: bovine pancreas
Protocol: as §1
To 12 μl of a 20 mM Tris-hydrochloric acid buffer (pH 7.5) containing 2M KCl, were added 8 μl of a solution with bovine pancreas α-chymotrypsin (product of Sigma Chemical Co., TypeII) dissolved at a concentration of 8 μg/ml in a 20 mM aqueous solution of CaCl2 containing 1 mM HCl, and 5 μl of a DMSO solution of a sample to be tested, and the resultant mixture was preincubated at 37° C. for 10 minutes and then added with 25 μl of a 1 mM solution of Ang I, followed by incubation at 37° C. for 15 minutes. Then, 50 μl of 30% acetic acid were added to stop the enzyme reaction. On the other hand, 5 μl of DMSO were added in place of the solution of the test sample to similarly conduct a reaction as a blank test. After completion of the reaction, each liquid reaction mixture was treated by high performance liquid chromatography in the same manner as in Test Example 1 to quantitate Ang I and Ang II, thereby calculating chymotripsin activity. The inhibitory activity against chymotrypsin was determined by calculating an inhibition rate, median inhibitory concentration (IC50) on the basis of the value in the blank test.

[4] = in vivo; settings: mouse, po
[5] = system: chymase; settings: literature, Okunishi et al.; cited from earlier work
[6] = cited from earlier work
[7] = system: vascular restenosis after the operation of PTCA; settings: random multifacility clinical study, Circulation 1992; cited from earlier work
[8] = 37° C., pH 7.5, Ang I substrate, read-out: Inhibitory activities against enzymes (IC50), Chymase
[9] = human neutrophil cathepsin G, 37° C., pH 7.5, Ang I substrate, read-out: Inhibitory activities against enzymes (IC50), Cathepsin
[10] = bovine pancreas, 37° C., pH 7.5, Ang I substrate, read-out: Inhibitory activities against enzymes (IC50), Chymotrypsin

IC50 [1, 8] | IC50 [2, 9] | IC50 [3, 10] | Structure (SMILES) | other results
 |  |  | Cc1ccccc1S(=O)(=O)N1C(=O)CN(c2ccccc2)C1=O [Compound 2, 1-phenyl-3-(2-toluenesulfonyl)-imidazolidin-2,4-dione] | LD50 at 24 h [4]: ≥ 1000 mg/kg; selectivity ratio at 24 h [4]: ≥ 50
 | 4.5 µM | 7 µM | Cc1ccc(S(=O)(=O)N2C(=O)CN(c3ccccc3)C2=O)cc1 [Compound 5, 1-phenyl-3-(4-toluenesulfonyl)-imidazolidin-2,4-dione] | 
3.7 µM | 0.96 µM | 3.5 µM | O=C1CN(c2ccccc2)C(=O)N1C(=O)c1ccccc1Cl [Compound 10, 3-(2-chlorobenzoyl)-1-phenyl-imidazolidin-2,4-dione] | 
14 µM | 3.2 µM | 6.9 µM | O=C1CN(c2ccccc2)C(=O)N1C(=O)c1ccc(-c2ccccc2)cc1 [Compound 15, 3-(4-phenylbenzoyl)-1-phenyl-imidazolidin-2,4-dione] | 
 | 8 µM | 3.7 µM | COc1cccc(S(=O)(=O)N2C(=O)CN(c3ccccc3)C2=O)c1 [Compound 20, 1-phenyl-3-(3-methoxybenzenesulfonyl)-imidazolidin-2,4-dione] | 
 | 3.3 µM | 1.4 µM | O=C1CN(c2ccccc2)C(=O)N1S(=O)(=O)c1cccc(Oc2ccccc2)c1 [Compound 25, 3-(3-phenoxybenzenesulfonyl)-1-phenyl-imidazolidin-2,4-dione] | 
 | 4.8 µM | 39 µM | O=C1CN(c2ccc(Oc3ccccc3)cc2)C(=O)N1S(=O)(=O)c1ccc(Cl)cc1 [Compound 30, 3-(4-chlorobenzenesulfonyl)-1-(4-phenoxyphenyl)-imidazolidin-2,4-dione] | 
 |  | 1.8 µM | COC(=O)c1cccc(S(=O)(=O)N2C(=O)CN(c3ccccc3)C2=O)c1 [Compound 35, 3-(3-methoxycarbonylbenzenesulfonyl)1-phenyl-imidazolidin-2,4-dione] | 
10 µM | 7 µM | 34 µM | O=C(O)COc1ccc(S(=O)(=O)N2C(=O)CN(c3ccccc3)C2=O)cc1 [Compound 40, 3-(4-carboxymethyloxybenzenesulfonyl)-1-phenyl-imidazolidin-2,4-dione] | 
0.45 µM | 4.5 µM | 3.5 µM | C=CCOC(=O)Cc1cccc(S(=O)(=O)N2C(=O)CN(c3ccccc3)C2=O)c1 [Compound 45, 3-(3-allyloxycarbonylmethylbenzenesulfonyl)-1-phenyl-imidazolidin-2,4-dione] | 
 |  |  | CN1CCN(C(=O)Cc2ccc(S(=O)(=O)N3C(=O)CN(c4ccccc4)C3=O)cc2)CC1 [Compound 50, 3-(4-N-methylpiperazylcarbonyl-methylbenzenesulfonyl)-1-phenyl-imidazolidin-2,4-dione] | IC50 [1]: 0.85 µM; IC50 [2]: 11 µM; IC50 [3]: 5.2 µM
0.06 µM | 1.7 µM |  | Cc1ccc(N2CC(=O)N(S(=O)(=O)c3ccc(C)c(C)c3)C2=O)cc1C [Compound 60] | inhibition at 100 µM [3]: 33.6%
0.027 µM | 1.9 µM | 8.5 µM | C=CCOC(=O)c1ccc(S(=O)(=O)N2C(=O)CN(c3ccc(C)c(C)c3)C2=O)cc1 [Compound 65, 3-(4-allyloxycarbonylbenzenesulfonyl)-1-(3,4-dimethylphenyl)-imidazolidin-2,4-dione] | 
0.55 µM | 1.8 µM | 1.6 µM | O=C1CN(c2ccccc2)C(=O)N1S(=O)(=O)c1cccc2ccccc12 [Compound 70, 3-(1-naphthysulfonyl)-1-(phenyl)-imidazolidin-2,4-dione] | 
0.047 µM | 0.52 µM | 2.4 µM | O=C1CN(c2ccc(Cl)c(Cl)c2)C(=O)N1S(=O)(=O)c1ccc2ccccc2c1 [Compound 75, 1-(3,4-dichlorophenyl)-3-(2-naphthylsulfonyl)imidazolidin-2,4-dione] | 
0.17 µM | 19 µM | 90 µM | O=C1CN(c2cnc3ccccc3c2)C(=O)N1S(=O)(=O)c1ccc(Cl)cc1 [Compound 80, 3-(4-chlorobenzenesulfonyl)-1-(3-quinolyl)-imidazolidin-2,4-dione] | 
 |  |  | CC(C)C[C@H](NC(=O)[C@@H](NC(=O)N[C@@H](Cc1ccccc1)C(=O)O)[C@@H]1CCN=C(N)N1)C(=O)N[C@H](C=O)Cc1ccccc1 [chymostatin] | inhibition of the enzymatic activity of chymase, in words [5]: inhibited by chymostatin; decomposition of peptide linkage in vivo [6]: easily decomposed in vivo
 |  |  | CCOC(=O)[C@H](CCc1ccccc1)N[C@H]1CCCN2CCC[C@@H](C(=O)O)N2C1=O [cilazapril] | prophylactic effect on vascular restenosis after PTCA versus placebo [7]: no statistically significant difference

Structure (SMILES) | IC50 [1, 8] | IC50 [2, 9] | IC50 [3, 10] | other results
O=C1CN(c2ccc(Cl)cc2)C(=O)N1S(=O)(=O)c1ccc(Cl)cc1 [Compound 1, 3-(4-chlorobenzenesulfonyl)-1-(4-chlorophenyl)imidazolidin-2,4-dione] | 0.3 µM | 1.5 µM | 0.5 µM | LD50 at 24 h [4]: ≥ 1000 mg/kg; selectivity ratio at 24 h [4]: ≥ 50
CC(C)(C)OC(=O)c1cccc(N2CC(=O)N(S(=O)(=O)c3ccc(Cl)cc3)C2=O)c1 [Compound 55] | 15 µM | 9.8 µM | 70 µM | 
